Inhibition and Inhibition in % data for 22 compounds are collected here from US9315490B2, “2,5-substituted pyrimidines” (Grünenthal GmbH, priority 2014, dated 2016).

One test deals with T1, human PDE4B1 (Homo sapiens, UniProt Q07343).
T1 construct: host or cells: Sf9 cells
T1 sequence (Q07343 whole entry): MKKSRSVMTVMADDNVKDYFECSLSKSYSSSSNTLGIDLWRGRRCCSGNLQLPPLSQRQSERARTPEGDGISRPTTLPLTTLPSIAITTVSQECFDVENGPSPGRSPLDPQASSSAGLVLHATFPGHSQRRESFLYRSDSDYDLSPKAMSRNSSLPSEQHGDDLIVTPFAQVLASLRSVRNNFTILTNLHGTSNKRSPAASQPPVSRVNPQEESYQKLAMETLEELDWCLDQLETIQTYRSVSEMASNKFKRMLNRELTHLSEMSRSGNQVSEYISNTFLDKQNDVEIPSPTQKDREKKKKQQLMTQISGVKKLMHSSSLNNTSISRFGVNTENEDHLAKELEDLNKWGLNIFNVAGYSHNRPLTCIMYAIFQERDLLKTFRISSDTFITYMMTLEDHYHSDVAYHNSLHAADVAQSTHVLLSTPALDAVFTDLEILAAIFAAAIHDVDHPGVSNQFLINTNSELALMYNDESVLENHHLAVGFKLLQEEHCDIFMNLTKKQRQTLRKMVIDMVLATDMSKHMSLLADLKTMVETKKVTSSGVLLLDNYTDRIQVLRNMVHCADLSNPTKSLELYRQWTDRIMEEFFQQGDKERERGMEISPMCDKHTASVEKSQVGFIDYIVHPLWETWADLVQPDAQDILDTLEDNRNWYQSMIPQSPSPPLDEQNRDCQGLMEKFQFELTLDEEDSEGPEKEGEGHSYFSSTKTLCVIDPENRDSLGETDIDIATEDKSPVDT
Briefly: cAMP HTRF assay to determine the activity of hPDE4B1. In kind it is biochemical. The settings on record: inhibition of PDE4B at a test concentration of 1 μM. An outline of the steps: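 Human recombinant PDE4B1 from Sf9 cells (4.8 U) in Tris-HCl, MgCl2, DTT, Tween 20 buffer at pH 7.8 with 40 nM cAMP (final), 30 min at room temperature. Reaction stopped with 1 mM IBMX; remaining cAMP detected by HTRF (665/620 nm ratio). IC50 from eight-concentration curves.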
`C[S+]([O-])c1cn(-c2ncc(-c3ccccc3F)cn2)c2cc(C(=O)N3CCC4(COC4)C3)ccc12` (stereo not shown) [Example 370, (1-(5-(2-Fluorophenyl)pyrimidin-2-yl)-3-(methylsulfinyl)-1H-indol-6-yl)(2-oxa-6-azaspiro[3.4]octan-6-yl)methanone] returned an inhibition at 1 µM of 23%.

`CCC1CCCCN1C(=O)c1ccc2c([S+](C)[O-])cn(-c3ncc(-c4ccccc4F)cn3)c2c1` (stereo not shown) [Example 371, (2-Ehylpiperidin-1-yl)(1-(5-(2-fluorophenyl)pyrimidin-2-yl)-3-(methylsulfinyl)-1H-indol-6-yl)methanone] returned an inhibition at 1 µM of 32%. Take `CN(C)[C@@H]1CCN(C(=O)c2ccc3c([S+](C)[O-])cn(-c4ncc(-c5ccccc5F)cn4)c3c2)C1` (stereo partly drawn) [Example 374, ((R)-3-(Dimethylamino)pyrrolidin-1-yl)(1-(5-(2-fluorophenyl)-pyrimidin-2-yl)-3-(methylsulfinyl)-1H-indol-6-yl)methanone]: the inhibition at 1 µM came out at 47%. The compound `CCN1CCN(C(=O)c2ccc3c([S+](C)[O-])cn(-c4ncc(-c5ccccc5F)cn4)c3c2)CC1` (stereo not shown) [Example 375, (4-Ethylpiperazin-1-yl)(1-(5-(2-fluorophenyl)pyrimidin-2-yl)-3-(methylsulfinyl)-1H-indol-6-yl)methanone] had an inhibition at 1 µM of 66%. On the same count and under the same terms, with `CN1CCCN(C(=O)c2ccc3c([S+](C)[O-])cn(-c4ncc(-c5ccccc5F)cn4)c3c2)CC1` (stereo not shown) [Example 376, (1-(5-(2-Fluorophenyl)pyrimidin-2-yl)-3-(methylsulfinyl)-1H-indol-6-yl)(4-methyl-1,4-diazepan-1-yl)methanone] the figure was 31%; with `C[S+]([O-])c1cn(-c2ncc(-c3ccccc3F)cn2)c2cc(C(=O)N3CCCCC3CO)ccc12` (stereo not shown) [Example 379, (1-(5-(2-Fluorophenyl)pyrimidin-2-yl)-3-(methylsulfinyl)-1H-indol-6-yl)(2-(hydroxymethyl)piperidin-1-yl)methanone], 50%; with `C[S+]([O-])c1cn(-c2ncc(-c3ccccc3F)cn2)c2cc(C(=O)N3CCC(CO)CC3)ccc12` (stereo not shown) [Example 380, (1-(5-(2-Fluorophenyl)pyrimidin-2-yl)-3-(methylsulfinyl)-1H-indol-6-yl)(4-(hydroxymethyl)piperidin-1-yl)methanone], 9%. On the same count and under the same terms, with `CN(C(=O)c1ccc2c([S+](C)[O-])cn(-c3ncc(-c4ccccc4F)cn3)c2c1)C1CCOCC1` (stereo not shown) [Example 382, 1-(5-(2-Fluorophenyl)pyrimidin-2-yl)-N-methyl-3-(methylsulfinyl)-N-(tetrahydro-2H-pyran-4-yl)-1H-indole-6-carboxamide] the figure was 0%; with `C[S+]([O-])c1cn(-c2ncc(-c3ccccc3F)cn2)c2cc(C(=O)N3CCOC(C)(C)C3)ccc12` (stereo not shown) [Example 383, (2,2-Dimethylmorpholino)(1-(5-(2-fluorophenyl)pyrimidin-2-yl)-3-(methylsulfinyl)-1H-indol-6-yl)methanone], 68%.

In the case of `C[S+]([O-])c1cn(-c2ncc(-c3ccccc3F)cn2)c2cc(C(=O)N3CCC4(CC3)COC4)ccc12` (stereo not shown) [Example 384, (1-(5-(2-Fluorophenyl)pyrimidin-2-yl)-3-(methylsulfinyl)-1H-indol-6-yl)(2-oxa-7-azaspiro[3.5]nonan-7-yl)methanone], the inhibition at 1 µM was 3%. The compound `CC(=O)N1CCN(C(=O)c2ccc3c([S+](C)[O-])cn(-c4ncc(-c5ccccc5F)cn4)c3c2)CC1` (stereo not shown) [Example 385, 1-(4-(1-(5-(2-Fluorophenyl)pyrimidin-2-yl)-3-(methylsulfinyl)-1H-indole-6-carbonyl)piperazin-1-yl)ethanone] had an inhibition at 1 µM of 0%. On the same count and under the same terms, with `CC(C)N1CCN(C(=O)c2ccc3c([S+](C)[O-])cn(-c4ncc(-c5ccccc5F)cn4)c3c2)CC1` (stereo not shown) [Example 386, (1-(5-(2-Fluorophenyl)pyrimidin-2-yl)-3-(methylsulfinyl)-1H-indol-6-yl)(4-isopropylpiperazin-1-yl)methanone] the figure was 6%. The same measure, in the same setting: with `CN(C)C1CCN(C(=O)c2ccc3c([S+](C)[O-])cn(-c4ncc(-c5ccccc5F)cn4)c3c2)CC1` (stereo not shown) [Example 387, (4-(Dimethylamino)piperidin-1-yl)(1-(5-(2-fluorophenyl)pyrimidin-2-yl)-3-(methylsulfinyl)-1H-indol-6-yl)methanone] the figure was 8%; with `COC(=O)C1CCN(C(=O)c2ccc3c([S+](C)[O-])cn(-c4ncc(-c5ccccc5F)cn4)c3c2)C1` (stereo not shown) [Example 388, Methyl 1-(1-(5-(2-fluorophenyl)pyrimidin-2-yl)-3-(methylsulfinyl)-1H-indole-6-carbonyl)pyrrolidine-3-carboxylate], 45%; with `C[S+]([O-])c1cn(-c2ncc(-c3ccccc3F)cn2)c2cc(C(=O)N3CCN(CCO)CC3)ccc12` (stereo not shown) [Example 389, (1-(5-(2-Fluorophenyl)pyrimidin-2-yl)-3-(methylsulfinyl)-1H-indol-6-yl)(4-(2-hydroxyethyl)piperazin-1-yl)methanone], 52%.

With `C[S+]([O-])c1cn(-c2ncc(-c3ccccc3F)cn2)c2cc(C(=O)N3CCS(=O)(=O)CC3)ccc12` (stereo not shown) [Example 390, (1,1-Dioxidothiomorpholino)(1-(5-(2-fluorophenyl)pyrimidin-2-yl)-3-(methylsulfinyl)-1H-indol-6-yl)methanone], the inhibition at 1 µM turned out to be 6%.

Compound `C[S+]([O-])c1cn(-c2ncc(-c3ccccc3F)cn2)c2cc(C(=O)N3CCN(CCC#N)CC3)ccc12` (stereo not shown) [Example 391, 3-(4-(1-(5-(2-Fluorophenyl)pyrimidin-2-yl)-3-(methylsulfinyl)-1H-indole-6-carbonyl)piperazin-1-yl)propanenitrile] came in with an inhibition at 1 µM of 31%. Regarding `COCCN1CCN(C(=O)c2ccc3c([S+](C)[O-])cn(-c4ncc(-c5ccccc5F)cn4)c3c2)CC1` (stereo not shown) [Example 392, (1-(5-(2-Fluorophenyl)pyrimidin-2-yl)-3-(methylsulfinyl)-1H-indol-6-yl)(4-(2-methoxyethyl)piperazin-1-yl)methanone], the inhibition at 1 µM stood at 0%. Same read-out and setting: under `CCOC(=O)C1CCN(C(=O)c2ccc3c([S+](C)[O-])cn(-c4ncc(-c5ccccc5F)cn4)c3c2)CC1` (stereo not shown) [Example 393, Ethyl 1-(1-(5-(2-fluorophenyl)pyrimidin-2-yl)-3-(methylsulfinyl)-1H-indole-6-carbonyl)piperidine-4-carboxylate] stands 10%; under `CCOC(=O)N1CCN(C(=O)c2ccc3c([S+](C)[O-])cn(-c4ncc(-c5ccccc5F)cn4)c3c2)CC1` (stereo not shown) [Example 394, Ethyl 4-(1-(5-(2-fluorophenyl)pyrimidin-2-yl)-3-(methylsulfinyl)-1H-indole-6-carbonyl)piperazine-1-carboxylat], 0%. The same measure, in the same setting: under `CN(C)C(=O)CN1CCN(C(=O)c2ccc3c([S+](C)[O-])cn(-c4ncc(-c5ccccc5F)cn4)c3c2)CC1` (stereo not shown) [Example 395, 2-(4-(1-(5-(2-Fluorophenyl)pyrimidin-2-yl)-3-(methylsulfinyl)-1H-indole-6-carbonyl)piperazin-1-yl)-N,N-dimethylacetamide] stands 0%.

The test is the same for the next values; noted with them: inhibition of PDE4B at a test concentration of 1 μM, 1 µM.
The compound `COC1CCN(C(=O)c2ccc3c([S+](C)[O-])cn(-c4ncc(-c5ccccc5F)cn4)c3c2)CC1` (stereo not shown) [Example 381, (1-(5-(2-Fluorophenyl)pyrimidin-2-yl)-3-(methylsulfinyl)-1H-indol-6-yl)(4-methoxypiperidin-1-yl)methanone] registered an Inhibition in % of 12%.
